Results taken from the supplement of paper PMC10307832.

Experiments:
Assay in all cases: relative viability (nuclei count vs DMSO), 5 days (fraction); higher = more cells survive
Foretinib = compound: COc1cc2c(Oc3ccc(NC(=O)C4(C(=O)Nc5ccc(F)cc5)CC4)cc3F)ccnc2cc1OCCCN1CCOCC1 [Foretinib] (anchor plate); conditions: 0.25 µM
Procedure, shortened: (§1)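 Lung cancer cell lines in 1536-well plates were exposed by pinning to five library-drug doses (not always all listed) √10 apart, following an overnight hold at 37 °C. MetaXpress counted Hoechst-stained nuclei from 4× images taken after 5 days without medium change. Viability is the median ratio of treated-well to vehicle-well nuclei across plates. Plates required control CV below 25% and at least one doubling.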

[1] = compound: O=S(=O)(c1ccccc1)N(CC(F)(F)F)c1ccc(C(O)(C(F)(F)F)C(F)(F)F)cc1
Procedure, shortened: as §1

RO-3306 = compound: C1=CC2=C(C=CC(=C2)C=C3C(=O)NC(=NCC4=CC=CS4)S3)N=C1 [RO-3306]
Procedure, shortened: as §1

| Cell Line | relative viability (Foretinib) | relative viability ([1]; 0.8 µM) | relative viability ([1]; 2.53 µM) | relative viability ([1]; 8 µM) | relative viability (RO-3306; 0.01 µM) | relative viability (RO-3306; 0.03162 µM) | relative viability (RO-3306; 0.1 µM) | relative viability (RO-3306; 0.3162 µM) | relative viability (RO-3306; 1 µM) |
| --- | --- | --- | --- | --- | --- | --- | --- | --- | --- |
| NCI-H1793 | 0.741 | 0.758 | 0.747 | 0.785 | 1.09 | 0.694 | 0.865 | 0.993 | 1.12 |
| NCI-H1915 | 1.1 | 1.06 | 0.98 | 1.08 | 1.05 | 0.944 | 0.98 | 0.992 | 0.536 |
| NCI-H1944 | 0.895 | 1.1 | 0.955 | 1.07 | 1.08 | 0.911 | 0.917 | 1.01 | 0.929 |
| NCI-H1975 | 0.958 | 1.09 | 0.943 | 0.95 | 1.09 | 0.804 | 0.869 | 0.997 | 0.91 |
| NCI-H1993 | 0.782 | 0.987 | 0.831 | 0.711 | 0.808 | 0.719 | 0.893 | 0.849 | 0.941 |
| NCI-H2009 | 1.22 | 0.977 | 0.862 | 0.891 | 1.03 | 0.955 | 0.983 | 1.02 | 1 |
| NCI-H2023 | 0.893 | 1.11 | 0.885 | 0.766 | 1.18 | 0.803 | 0.901 | 1 | 0.858 |
| NCI-H2085 | 1.01 | 0.967 | 0.908 | 0.929 | 0.985 | 0.936 | 0.98 | 1.05 | 0.995 |
| NCI-H2087 | 1.06 | 1.11 | 0.993 | 0.909 | 1.11 | 0.918 | 1.1 | 1.04 | 0.991 |
| NCI-H2126 | 1.2 | 1.1 | 1.01 | 1.02 | 1.01 | 0.916 | 0.988 | 1.03 | 0.938 |
| NCI-H2170 | 1.01 | 1.08 | 0.964 | 0.913 | 1.06 | 0.946 | 0.952 | 1.01 | 0.991 |
| NCI-H2228 | 0.886 | 1.08 | 0.962 | 0.937 | 1.07 | 0.96 | 1.09 | 1 | 0.696 |
| NCI-H2342 | 1.05 | 1.36 | 0.968 | 0.938 | 1.02 | 0.865 | 0.941 | 0.914 | 0.932 |
| NCI-H2347 | 0.902 | 1.08 | 1.01 | 1.04 | 1.19 | 0.882 | 1.05 | 1 | 1 |
| NCI-H2405 | 1.01 | 1.03 | 0.987 | 0.945 | 1 | 0.949 | 0.995 | 1.02 | 0.906 |
| NCI-H3122 | 0.93 | 0.99 | 0.977 | 1.08 | 1.05 | 0.99 | 1.01 | 1.05 | 1.04 |
| PC-3 [JPC-3] | 1.01 | 1.06 | 1.06 | 1 | 1.03 | 0.929 | 1.03 | 1.01 | 1.06 |
| PC-14 | 0.951 | 1.03 | 0.832 | 0.83 | 1.05 | 0.836 | 1.05 | 1.05 | 0.926 |
| RERF-LC-KJ | 0.865 | 1.02 | 0.87 | 0.84 | 1.07 | 0.86 | 0.983 | 1.04 | 1.01 |
| SK-LU-1 | 0.785 | 1.16 | 1.08 | 0.992 | 1.08 | 0.924 | 1.07 | 1.01 | 0.995 |
| SK-MES-1 | 0.965 | 1.11 | 0.973 | 0.936 | 1.07 | 0.963 | 1.02 | 1.08 | 1.08 |
| SW 900 | 0.974 | 0.934 | 0.729 | 0.994 | 0.917 | 0.697 | 0.705 | 0.943 | 0.785 |
| SW 1573 | 0.879 | 1.17 | 1.01 | 0.884 | 1.02 | 0.781 | 0.945 | 1.05 | 0.979 |
